Laboratory results published in PubChem BioAssay (NCI).
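1) Cells in 96-well plates. 2) Compound, 48 h, 5 concentrations. 3) Linear interpolation between surrounding doses. 4) Unreached endpoint = highest concentration. The concentration for full growth arrest is given as TGI.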

How the values were obtained:
Test in all cases: DTP human tumour cell line panel, 48 h
NCI-H460 lung = system: NCI-H460 lung
SN12C renal = system: SN12C renal
MALME-3M melanoma = system: MALME-3M melanoma
A549 NSCLC = system: A549 NSCLC
MCF7 breast = system: MCF7 breast
HL-60(TB) leukemia = system: HL-60(TB) leukemia
NCI/ADR-RES ovarian = system: NCI/ADR-RES ovarian
SNB-75 CNS = system: SNB-75 CNS
UO-31 renal = system: UO-31 renal
MDA-MB-435 = system: MDA-MB-435
MDA-N = system: MDA-N
M14 melanoma = system: M14 melanoma

Compound	TGI (NCI-H460 lung)	TGI (SN12C renal)	TGI (MALME-3M melanoma)	TGI (A549 NSCLC)	TGI (MCF7 breast)	TGI (HL-60(TB) leukemia)	TGI (NCI/ADR-RES ovarian)	TGI (SNB-75 CNS)	TGI (UO-31 renal)	TGI (MDA-MB-435)	TGI (MDA-N)	TGI (M14 melanoma)
CSC1=C(C)S/C(=C\c2ccc(/C=C3\SC(C)=C(SC)S3)cc2)S1	> 100 µM	> 100 µM	> 100 µM	> 100 µM	> 100 µM	> 100 µM	> 100 µM	> 100 µM	> 100 µM	> 100 µM	> 100 µM	> 100 µM
Cc1cccc2c1CC(C1OC(=O)c3c(C)cccc31)C2=O (centres undefined)	> 100 µM	> 100 µM	> 100 µM	> 100 µM	> 100 µM	> 100 µM	> 100 µM	> 100 µM	> 100 µM	> 100 µM	> 100 µM	> 100 µM
CCOc1cc(NC(C)=O)ccc1C(=O)NN1C(=O)C(Cl)C1c1ccc(O)c(OC)c1 (centres undefined)	33.1 µM	31 µM	22 µM	32.5 µM	30.4 µM	38.3 µM	57.4 µM	24.1 µM	11.1 µM	29.8 µM	31.9 µM	28.1 µM
COC(=O)C1=C(O)C(C(=O)OC)[C@]2(O)[C@H](C(=O)OC)[C@H]1C[C@@H](c1ccc(O)cc1)[C@H]2C(=O)OC (some centres undefined)	74.5 µM	> 100 µM	> 100 µM	> 100 µM	> 100 µM	95.1 µM	> 100 µM	81.5 µM	> 100 µM	> 100 µM	> 100 µM	> 100 µM
COc1ccccc1/[N+]([O-])=C/c1ccccc1OC(=S)S	> 100 µM	> 100 µM	> 100 µM	> 100 µM	> 100 µM	74.5 µM	> 100 µM	> 100 µM	> 100 µM	36 µM	35.9 µM	> 100 µM
CCCCCCCCCCCCOCCCCCCCCC/C=C/c1ccc2c(c1)OCCOCCOCCOCCO2	37.9 µM	50.8 µM	66.8 µM	36.6 µM	32 µM	> 100 µM	34.8 µM	33.4 µM	39.4 µM	33.8 µM	36.2 µM	88.9 µM
CCOC(=O)NC(OCCN(C)C)(C(F)(F)F)C(F)(F)F	> 100 µM	> 100 µM	> 100 µM	> 100 µM	> 100 µM	> 100 µM	> 100 µM	> 100 µM	> 100 µM	> 100 µM	> 100 µM	> 100 µM
CCOC(=O)/C(=C\NC[C@@H](C)O)c1nc2ccccc2[nH]1	> 100 µM	> 100 µM	> 100 µM	> 100 µM	> 100 µM	90.4 µM	> 100 µM	> 100 µM	4.02 µM	> 100 µM	> 100 µM	> 100 µM
O=S(=O)(O)c1ccc(N=Nc2c(O)ccc3ccccc23)cc1	> 100 µM	> 100 µM	> 100 µM	> 100 µM	> 100 µM	> 100 µM	> 100 µM	> 100 µM	> 100 µM	> 100 µM	> 100 µM	> 100 µM
O=c1oc2ccccc2cc1-c1nc2ccccc2c(=O)[nH]1	> 100 µM	> 100 µM	> 100 µM	> 100 µM	> 100 µM	> 100 µM	> 100 µM	> 100 µM	> 100 µM	> 100 µM	> 100 µM	> 100 µM
CC(C)C(=O)CC(Sc1ccc(N)cc1)c1ccccc1 (centres undefined)	74.9 µM	64.9 µM	> 100 µM	> 100 µM	47.1 µM	49.2 µM	99.6 µM	> 100 µM	> 100 µM	39.8 µM	35.5 µM	> 100 µM
COC(=O)C1=C(O)C(C(=O)OC)[C@]2(O)[C@H](C(=O)OC)[C@H]1C[C@@H](c1ccc(Cl)cc1Cl)[C@H]2C(=O)OC (some centres undefined)	23.2 µM	22.2 µM	20.6 µM	24.5 µM	23 µM	7.9 µM	38.2 µM	37.2 µM	21.1 µM	21.2 µM	11 µM	19.1 µM
